Measurements published in patent publication US8946302B2, “Selective sigma-1 receptor ligands” (Wisconsin Alumni Research Foundation, priority 2008, dated 2015).
Where two headings read alike, the source gives them in different places.

Columns and labels:
[1] = test system: WT and sigma-1 receptor knockout mice; experiment: Open-field hypermobility assay in WT and sigma-1 receptor KO mice; format: in vivo, mouse; settings: WT and KO mice, 3 mg/kg i.p.
Description: All mice were maintained on a normal light/dark cycle and handled in accordance with Animal Care and Use Guidelines of the University of Wisconsin, Madison. […] Mice were first acclimatized to the experimental room for one hour. WT and KO mice were injected with the monoamine oxidase inhibitor, pargyline (75 mg/kg, i.p.) two hours prior to DMT or vehicle injection(28). […] Each condition represents 8 to 14 mice (n=8-14). […] A computer program was used to quantitate movement and after each experiment, 70% ethanol was used to remove odors from the open-field.

sigma-2 receptor [2] = target: T1, sigma-2 receptor (Rattus norvegicus, UniProt Q5U3Y7); experiment: Sigma-2 receptor competitive binding, trace amines; parameters: from tissue; host or cells: liver membranes (rat inferred)
T1 sequence (Q5U3Y7 1-176): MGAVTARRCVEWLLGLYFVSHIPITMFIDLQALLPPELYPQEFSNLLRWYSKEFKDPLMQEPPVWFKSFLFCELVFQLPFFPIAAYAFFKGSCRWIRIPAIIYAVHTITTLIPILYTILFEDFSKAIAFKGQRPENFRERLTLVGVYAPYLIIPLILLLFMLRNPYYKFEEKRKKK
Description: (§1) Competitive binding assays were performed as previously described (18) with the exception of testing new ligands shown in Table 4.

sigma-2 receptor [3] = target: T1, sigma-2 receptor; experiment: Sigma-2 competitive binding, [3H]-DTG with (+)-pentazocine, rat liver membranes (Example 6); parameters: from tissue; host or cells: rat liver membranes; settings: rat liver membranes, n = 3; read-out: Sigma2 KD values
sigma-1 receptor [4] = target: T2, sigma-1 receptor (Cavia porcellus, UniProt Q60492); experiment: Sigma-1 competitive binding, (+)-[3H]pentazocine, guinea pig liver membranes (Example 6); parameters: from tissue; host or cells: guinea pig liver membranes;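 note: compounds tested over serial concentrations, 45 min incubation at 30 °C with membrane preparations, read-out is displacement of bound radioligand from the receptor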
T2 sequence (Q60492 whole entry): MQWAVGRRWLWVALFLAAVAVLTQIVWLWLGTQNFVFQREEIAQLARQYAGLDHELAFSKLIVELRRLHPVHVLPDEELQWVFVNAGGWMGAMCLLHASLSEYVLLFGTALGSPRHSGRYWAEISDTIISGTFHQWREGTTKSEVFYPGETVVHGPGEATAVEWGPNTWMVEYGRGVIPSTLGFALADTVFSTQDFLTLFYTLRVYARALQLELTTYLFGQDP

Kv 1.4 K+ channel = target: T3, Kv 1.4 K+ channel (Rattus norvegicus, UniProt P15385); experiment: Whole cell patch clamp of Kv 1.4 K+ channel co-expressed with sigma-1 receptor in HEK-293 cells; format: cell-based
T3 construct: expressed in transfected cells; host or cells: HEK-293, transient, pIRES KvS1R plus pEGFP
T3 sequence (Q9R0C9 whole entry partner): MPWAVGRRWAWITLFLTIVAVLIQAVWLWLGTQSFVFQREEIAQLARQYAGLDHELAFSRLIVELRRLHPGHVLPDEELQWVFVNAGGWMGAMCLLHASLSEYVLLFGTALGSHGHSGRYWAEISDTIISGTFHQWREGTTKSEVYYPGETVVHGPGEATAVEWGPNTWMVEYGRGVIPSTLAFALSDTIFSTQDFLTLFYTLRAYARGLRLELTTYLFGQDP
T3 sequence (P15385 whole entry): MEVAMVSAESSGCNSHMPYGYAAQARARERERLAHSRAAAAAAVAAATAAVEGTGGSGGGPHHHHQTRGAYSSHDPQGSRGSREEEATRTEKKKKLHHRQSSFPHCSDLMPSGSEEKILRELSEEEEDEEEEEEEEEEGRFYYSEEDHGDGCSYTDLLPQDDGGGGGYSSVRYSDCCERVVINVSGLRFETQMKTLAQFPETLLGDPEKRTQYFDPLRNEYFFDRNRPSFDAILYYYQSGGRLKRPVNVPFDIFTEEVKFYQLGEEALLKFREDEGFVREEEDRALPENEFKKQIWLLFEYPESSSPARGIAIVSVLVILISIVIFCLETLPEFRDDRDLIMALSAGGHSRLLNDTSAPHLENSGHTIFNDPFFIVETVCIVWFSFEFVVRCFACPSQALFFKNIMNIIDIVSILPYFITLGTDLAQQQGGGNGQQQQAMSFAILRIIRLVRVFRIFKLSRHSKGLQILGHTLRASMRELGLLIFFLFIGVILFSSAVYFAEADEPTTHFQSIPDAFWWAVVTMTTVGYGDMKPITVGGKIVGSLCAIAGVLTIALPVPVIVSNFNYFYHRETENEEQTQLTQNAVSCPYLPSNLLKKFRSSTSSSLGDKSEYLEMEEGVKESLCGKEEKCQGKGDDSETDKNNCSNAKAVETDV
Description: After transfection (36-48 hours), whole cell K^+ currents were recorded from GFP positive HEK cells under voltage clamp using standard patch clamp techniques, using patch pipettes filled with (in mM) 120 KCl, 10 NaCl, 10 EGTA, 2 MgCl2, 2-4 MgATP, 0.3 NaGTP, 10 HEPES, pH 7.3.
The external solution was composed of (in mM) 130 NaCl, 4 KCl, 2 CaCl2, 1 MgCl2, 10 HEPES, pH 7.4 at room temperature (22-24° C.). Patch pipettes with resistances from 1-3 MΩ were fabricated from borosilicate glass (Garner Glass Co., CA). K^+ channels were activated by voltage step from −120 mV to 20 mV for 250 ms. Axopatch 200B, patch clamp amplifier interfaced to a PC running PCLAMP 7 (Axon Instruments) was used for data acquisition. Drugs were applied by a gravity feed system at a flow rate of 1-3 mL/minute. Series resistance compensation was used for cells with series resistance values higher than 10 MΩ. A 80-90% series resistance compensation was achieved on such cells.
K^+ currents were recorded using whole cell patch clamp technique.

[5] = target: T4, purified sigma-1 receptor (Cavia porcellus, UniProt Q60492); experiment: Competitive displacement of [3H]-(+)-pentazocine at the pure sigma-1 receptor; format: binding, guinea pig; settings: read-out: Ki Pure σ-1R
T4 construct: made in house; host or cells: E. coli BL21 DE3
T4 sequence (Q60492 whole entry): as the sequence (Q60492 whole entry) above
Description: A guinea pig sigma-1 receptor was purified as previously described (Ramachandran et al., Protein Expr. Purif., 2007. 51(2): 283-92). The pMal P2X plasmid (New England Biolabs) encoding the guinea pig sigma-1 receptor on the C-terminus of the E. coli Maltose Binding Protein was used for purification. The sigma-1 receptor on its C-terminus carried a hexa-histadine epitope tag. Protein was expressed in the E. coli strain BL21 DE3 (Novagen) with 0.6 mM IPTG. The E. coli pellet was sonicated and centrifuged at 100,000 g for 1 hour to separate the particulate and soluble fractions. The particulate fraction was extracted with Triton X-100, centrifuged and the extract was loaded onto an amylose resin (New England Biolabs, E-802). After washing the resin with buffer containing 0.5% Triton X-100, the MBP-sigma-1 receptor fusion protein was eluted with buffer containing 10 mM maltose.
The MBP-sigma-1-receptor fusion protein was cleaved with Factor Xa protease (Novagen) at room temperature for 24-48 hours and the cleavage was monitored with SDS-polyacrylamide gel electrophoresis. The sigma-1 receptor from the Factor Xa cleavage was purified with a HIS-Select HC Nickel affinity gel (Sigma-Aldrich P6611) in a batch format. The resin was washed with buffer containing 0.5% Triton X-100 detergent and the beads were separated by a brief centrifugation at 4000 rpm in a microcentrifuge. After washing to remove MBP, the pure sigma-1 receptor was eluted in buffer containing 250 mM imidazole.
To remove the undigested MBP-sigma-1 receptor fusion protein that is carried over in the Ni^2+ purification, the eluate from the Ni^2+ purification was incubated with Anti-MBP antibody conjugated to agarose (Vector Laboratories, Burlingame, Calif.) at 4° C. for 18-24 hours. The beads were separated by centrifugation and the supernatant contained the pure sigma-1 receptor.
Competition ligand binding to the pure sigma-1 receptor was performed as previously described. […] After incubation at 30° C. for 60 minutes, the reaction was terminated by rapid filtration through glass fiber filters (Whatman GF/B), using a Brandel cell harvester (Brandel, Gaithersburg, Md.). The glass fiber filters were pre-soaked in 0.5% polyethyleneimine (PEI) for at least 1 hour at room temperature (˜23° C.). Filters were washed 4 times with 4 mL of ice-cold 50 mM Tris-C1, pH 8.0. Radioactivity was quantified by liquid scintillation counting using a Packard model 1600 CA scintillation counter.

sigma-1 receptor [6] = target: T5, sigma-1 receptor (Rattus norvegicus, UniProt Q9R0C9); experiment: Protection of [125I]-IACoc photolabeling in rat liver membranes; format: binding; settings: even at 50 and 100 μM
T5 construct: from tissue; host or cells: rat liver membranes
T5 sequence (Q9R0C9 whole entry): as the sequence (Q9R0C9 whole entry partner) above
Description: Rat liver membranes (100 μg/lane) were suspended in the presence or absence of the protecting drugs. […] Percent band intensities are shown compared to controls performed in the absence of protecting ligand (−).

sigma-1 receptor [7] = target: sigma-1 receptor (Homo sapiens, UniProt Q99720); settings: literature value; cited from earlier work
Chain of sigma-1 receptor (Homo sapiens, UniProt Q99720) (Q99720 whole entry, species assumed): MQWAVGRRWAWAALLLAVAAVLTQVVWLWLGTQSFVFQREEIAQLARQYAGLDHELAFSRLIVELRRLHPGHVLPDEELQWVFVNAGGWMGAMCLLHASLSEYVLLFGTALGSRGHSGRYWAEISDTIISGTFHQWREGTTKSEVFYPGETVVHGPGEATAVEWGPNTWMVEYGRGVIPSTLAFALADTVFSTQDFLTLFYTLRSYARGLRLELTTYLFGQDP

sigma-2 receptor [8] = target: sigma-2 receptor (Homo sapiens, UniProt Q5BJF2); settings: literature value; cited from earlier work
Chain of sigma-2 receptor (Homo sapiens, UniProt Q5BJF2) (Q5BJF2 whole entry, species assumed): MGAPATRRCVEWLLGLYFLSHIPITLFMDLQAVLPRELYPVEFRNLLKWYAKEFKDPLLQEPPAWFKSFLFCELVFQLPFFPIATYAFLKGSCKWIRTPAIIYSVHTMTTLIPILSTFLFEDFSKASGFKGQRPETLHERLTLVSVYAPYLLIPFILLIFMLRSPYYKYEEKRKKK

MCP10A = experiment: Cytotoxicity assay MCP10A; format: cell-based; settings: Homo sapiens, HU Breast, read-out: IC50 (SE) growth inhibition
Description: (§2) Multi-plex cytotoxicity assays were performed by the Keck-UWCCC Small Molecule Screening Facility (Madison, Wis.). Specific methodology can be found online at http://hts.wisc.edu/Resources.htm#mpa.

HCT-45 = experiment: Cytotoxicity assay HCT-45; format: cell-based; settings: Homo sapiens, HU Colorectal, read-out: IC50 (SE) growth inhibition
Description: as §2

MCF7 = experiment: Cytotoxicity assay MCF7; format: cell-based; settings: Homo sapiens, HU Breast, read-out: IC50 (SE) growth inhibition
Description: as §2

HT-29 = experiment: Cytotoxicity assay HT-29; format: cell-based; settings: Homo sapiens, HU Colorectal, read-out: IC50 (SE) growth inhibition
Description: as §2

SKOV-3 = experiment: Cytotoxicity assay SKOV-3; format: cell-based; settings: Homo sapiens, SK-OV-3, HU Ovarian, read-out: IC50 (SE) growth inhibition
Description: as §2

HI299 = experiment: Cytotoxicity assay HI299; format: cell-based; settings: Homo sapiens, HU Lung, read-out: IC50 (SE) growth inhibition
Description: as §2

tumor cell lines = experiment: Cytotoxicity assays, various tumor cell lines (statements in words); format: cell-based, human
Description: Because sigma-1 receptors are overexpressed in numerous tumor cell lines, which include breast cancer, lung carcinoma, renal carcinoma, colon carcinoma, sarcoma, brain tumors, melanoma, glioblastoma, neuroblastoma, and prostate cancer, the ability of the compounds to inhibit the growth of various tumor cell lines were tested.
as §2

A549 = experiment: Cytotoxicity assay A549; format: cell-based; settings: Homo sapiens, HU lung, read-out: IC50 (SE) growth inhibition
Description: as §2

NCI-H460 = experiment: Cytotoxicity assay NCI-H460; format: cell-based; settings: Homo sapiens, HU lung, read-out: IC50 (SE) growth inhibition
Description: as §2

SF268 = experiment: Cytotoxicity assay SF268; format: cell-based; settings: Homo sapiens, SF-268, HU CNS, read-out: IC50 (SE) growth inhibition
Description: as §2

MB-MDA-231 = experiment: Cytotoxicity assay MB-MDA-231; format: cell-based; settings: Homo sapiens, HU Breast, read-out: IC50 (SE) growth inhibition
Description: as §2

Du145 = experiment: Cytotoxicity assay Du145; format: cell-based; settings: Homo sapiens, DU-145, HU Prostate, read-out: IC50 (SE) growth inhibition
Description: as §2

sigma-1 receptor [9] = target: T2, sigma-1 receptor; experiment: Competition assay against (+)-[3H]-pentazocine, trace amines; format: binding; parameters: from tissue
Description: as §1

σ-1 Sites = target: T6, σ-1 Sites (Cavia porcellus, UniProt Q60492); experiment: σ-1 sites radioligand binding, guinea pig liver membranes (Table 2)
T6 construct: from tissue
T6 sequence (Q60492 whole entry): as the sequence (Q60492 whole entry) above

σ-2 Sites = target: T7, σ-2 Sites (Rattus norvegicus, UniProt Q5U3Y7); experiment: σ-2 sites radioligand binding, rat liver membranes (Table 2)
T7 construct: from tissue
T7 sequence (Q5U3Y7 1-176): T1 sequence (Q5U3Y7 1-176)
Description: Assays for sigma-1 were performed using 10 nM (+)-[^3H]pentazocine in guinea pig liver homogenates (25 μg/well) incubated at 30° C. for 1 hour with several concentrations of competing ligands. After incubation, membranes were harvested on a 0.5% PEI-treated Whatman GF/B filters using a Brandel Cell Harvester. (+)-[^3H]pentazocine binding was determined by liquid scintillation counting. […] Serial concentrations of the compounds evaluated were added to the reactions for 45 minutes at 30° C. and the samples vacuum filtered through 0.5% polyethyleneimine (PEI) treated Whatman GF/B as described above to measure displacement of the radioligands from the sigma receptor subtypes.

Question: With `CN[C@@H](C)Cc1ccccc1` [methamphetamine] as the compound, how does the “hypermobility” value [1] read?
Answer: induced hypermobility in both WT and KO mice

Question: Which Kd (sigma-2 receptor [2]; read-out: Sigma-2R KD) does the source give for `CNCCc1ccc(O)cc1` [N-methyltyramine, 4-(2-(methylamino)ethyl)phenol] here?
Answer: 6.61 µM

Question: Which melting point does the source give for `CCCNCCc1ccc([N+](=O)[O-])cc1` [Compound 7, N-propyl-N-3-(4-nitophenyl)-ethylamine] here?
Answer: 142 to 144 °C

Question: What about the Kd (sigma-2 receptor [3]) of the same compound?
Answer: 53.6 µM

Question: What about the “Ratio (σ2/σ1)” value (sigma-1 receptor [4]) of the same compound?
Answer: 23.8

Question: For `CCCCN` [Butylamine, reference compound], which “average inhibition of Kv 1.4 K+ channel” value (Kv 1.4 K+ channel; concentrations up to 300 μM, HEK-293) is on record?
Answer: 21%

Question: What about the Ki ([5]; [3H]-(+)-pentazocine 10 nM) of the same compound?
Answer: 477 ± 67.5 µM

Question: With `CNCCc1c[nH]c2ccccc12` [N-methyltryptamine] as the compound, how does the “protection of sigma-1 receptor [125I]-IACoc photolabeling” value (sigma-1 receptor [6]) read?
Answer: protected minimally

Question: For `COC(=O)C1C(OC(=O)c2ccc(N=[N+]=[N-])c(I)c2)CC2CCC1N2C` (stereo not drawn) [[^125I]-IACoc, 3-[^125I]iodo-4-azidococaine], which Kd (sigma-1 receptor [7]) is on record?
Answer: 0.000126 µM

Question: With `CC1CN(CCCc2ccc(N=[N+]=[N-])c([125I])c2)CC(C)O1` (stereo not drawn) [[^125I]IAF, 1-N-(2′,6′-dimethyl-morpholino)-3-(4-azido-3-[^125I]iodo-phenyl)propane] as the compound, how does the Kd (sigma-1 receptor [7]) read?
Answer: 0.194 µM

Question: And the Kd (sigma-2 receptor [8])?
Answer: 2.78 µM

Question: Which IC50 (MCP10A) does the source give for `CCCCN(CCCC)CCCc1ccc([N+](=O)[O-])cc1` [Compound 11, N,N-Dibutyl-3-(4-nitrohenyl)propylamine] here?
Answer: > 100 µM

Question: What about the IC50 (HCT-45) of the same compound?
Answer: > 100 µM

Question: And the IC50 (MCF7)?
Answer: 22.4 µM

Question: What about the IC50 (HT-29) of the same compound?
Answer: > 100 µM

Question: What about the IC50 (SKOV-3) of the same compound?
Answer: 27.9 µM

Question: What about the Kd (sigma-2 receptor [3]) of the same compound?
Answer: 0.404 µM

Question: What about the “Ratio (σ2/σ1)” value (sigma-1 receptor [4]) of the same compound?
Answer: 1347

Question: What about the Kd (sigma-1 receptor [4]; guinea pig liver membranes, n = 3, read-out: Sigma 1 KD values) of the same compound?
Answer: 0.0003 µM

Question: And the IC50 (HI299)?
Answer: > 100 µM

Question: And the “cytotoxicity / tumor cell growth inhibition” value (tumor cell lines)?
Answer: robustly inhibits growth in MB-MDA231, MCF7, Du145, and NCI-H460 cell lines in addition to SKOV-3 cells

Question: What about the IC50 (A549) of the same compound?
Answer: > 100 µM

Question: And the IC50 (NCI-H460)?
Answer: 40.5 µM

Question: What about the IC50 (SF268) of the same compound?
Answer: > 100 µM

Question: And the IC50 (MB-MDA-231)?
Answer: 57.1 µM

Question: And the IC50 (Du145)?
Answer: 32.7 µM

Question: Which Kd (sigma-2 receptor [2]) does the source give for `NCCc1ccccc1` [Phenethylamine] here?
Answer: 7.31 µM

Question: What about the Kd (sigma-1 receptor [9]) of the same compound?
Answer: 97.4 µM

Question: Which Ki (σ-1 Sites; guinea pig liver membranes) does the source give for `CCCCNCCCc1ccccc1` [Compound 1a, N-(3-Phenylpropyl)butan-1-amine] here?
Answer: 0.073 µM

Question: And the “σ-1 selectivity σ-2 Ki/σ-1 Ki” value (σ-1 Sites; σ-2 rat liver / σ-1 guinea pig liver membranes)?
Answer: 2

Question: And the EC50 (Kv 1.4 K+ channel; HEK-293 co-expressing sigma-1 receptor, read-out: EC50 for inhibition of the Kv 1.4 K+ channel)?
Answer: 50 µM

Question: And the Ki ([5]; [3H]-(+)-pentazocine)?
Answer: 0.205 ± 0.0185 µM

Question: And the Ki (σ-2 Sites)?
Answer: 0.153 µM
